{
  "source": "paper PMC6540285",
  "about": "“Evaluation of Protein Kinase Inhibitors with PLK4 Cross-Over Potential in a Pre-Clinical Model of Cancer” (International Journal of Molecular Sciences, 2019)",
  "key": {"[1]": {"target": "RET (Homo sapiens, UniProt P07949)", "assay": "SelectScreen kinase profiling, ZLYTE", "assay_type": "biochemical"}, "[2]": {"target": "EPHB1 (Homo sapiens, UniProt P54762)", "assay": "SelectScreen kinase profiling, ZLYTE", "assay_type": "biochemical", "details": "EPHB1, 10 µM"}, "[3]": {"target": "EPHA6 (Homo sapiens, UniProt Q9UF33)", "assay": "SelectScreen kinase profiling, LanthaScreen binding", "details": "EPHA6, 10 µM"}, "[4]": {"target": "LIMK2 (Homo sapiens, UniProt P53671)", "assay": "SelectScreen kinase profiling, LanthaScreen binding", "details": "LIMK2, 10 µM"}, "[5]": {"target": "DDR2 (Homo sapiens, UniProt Q16832)", "assay": "SelectScreen kinase profiling, LanthaScreen binding", "details": "DDR2, 10 µM"}, "[6]": {"target": "GRK6 (Homo sapiens, UniProt P43250)", "assay": "SelectScreen kinase profiling, ZLYTE", "assay_type": "biochemical", "details": "GRK6, 10 µM"}, "[7]": {"target": "PRKCZ (PKC zeta) (Homo sapiens, UniProt Q05513)", "assay": "SelectScreen kinase profiling, ZLYTE", "assay_type": "biochemical"}, "[8]": {"target": "ABL1 F317L (Homo sapiens, UniProt P00519, F317L)", "assay": "SelectScreen kinase profiling, ZLYTE", "assay_type": "biochemical"}, "[9]": {"target": "P450 2C9 (Homo sapiens, UniProt P11712)", "assay": "SelectScreen P450 Vivid biochemical assay", "details": "10000nM; substrate BOMF"}, "[10]": {"tested_on": "MON cells", "assay": "cells", "details": "read-out: MTT: IC50 of the proliferation assay"}, "[11]": {"target": "STK23 (MSSK1) (Homo sapiens, UniProt Q9UPE1)", "sequence (Q9UPE1 whole entry)": "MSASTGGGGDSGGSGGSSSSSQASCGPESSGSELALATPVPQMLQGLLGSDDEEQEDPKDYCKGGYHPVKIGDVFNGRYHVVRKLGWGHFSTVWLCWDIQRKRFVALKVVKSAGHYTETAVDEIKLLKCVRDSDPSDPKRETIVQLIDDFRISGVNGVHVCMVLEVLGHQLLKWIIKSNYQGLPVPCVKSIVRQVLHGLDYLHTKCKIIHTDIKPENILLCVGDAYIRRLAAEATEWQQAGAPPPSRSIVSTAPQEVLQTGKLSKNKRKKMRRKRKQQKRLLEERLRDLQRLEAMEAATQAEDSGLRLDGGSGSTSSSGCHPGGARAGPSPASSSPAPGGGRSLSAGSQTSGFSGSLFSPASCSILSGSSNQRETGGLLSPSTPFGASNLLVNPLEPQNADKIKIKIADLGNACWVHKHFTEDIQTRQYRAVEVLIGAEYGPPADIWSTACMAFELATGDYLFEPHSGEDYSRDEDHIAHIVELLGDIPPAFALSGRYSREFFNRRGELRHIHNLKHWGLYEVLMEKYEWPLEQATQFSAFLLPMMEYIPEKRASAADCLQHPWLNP", "assay": "SelectScreen kinase profiling, ZLYTE", "assay_type": "biochemical", "source_text": "Kinase Technology % Inhibition Avg Kinase Technology % Inhibition Avg"}, "[12]": {"target": "PHKG1 (Homo sapiens, UniProt Q16816)", "assay": "SelectScreen kinase profiling, ZLYTE", "assay_type": "biochemical", "details": "PHKG1, 10 µM"}, "[13]": {"target": "CAMKK2 (CaMKK beta) (Homo sapiens, UniProt Q96RR4)", "sequence (Q96RR4 whole entry)": "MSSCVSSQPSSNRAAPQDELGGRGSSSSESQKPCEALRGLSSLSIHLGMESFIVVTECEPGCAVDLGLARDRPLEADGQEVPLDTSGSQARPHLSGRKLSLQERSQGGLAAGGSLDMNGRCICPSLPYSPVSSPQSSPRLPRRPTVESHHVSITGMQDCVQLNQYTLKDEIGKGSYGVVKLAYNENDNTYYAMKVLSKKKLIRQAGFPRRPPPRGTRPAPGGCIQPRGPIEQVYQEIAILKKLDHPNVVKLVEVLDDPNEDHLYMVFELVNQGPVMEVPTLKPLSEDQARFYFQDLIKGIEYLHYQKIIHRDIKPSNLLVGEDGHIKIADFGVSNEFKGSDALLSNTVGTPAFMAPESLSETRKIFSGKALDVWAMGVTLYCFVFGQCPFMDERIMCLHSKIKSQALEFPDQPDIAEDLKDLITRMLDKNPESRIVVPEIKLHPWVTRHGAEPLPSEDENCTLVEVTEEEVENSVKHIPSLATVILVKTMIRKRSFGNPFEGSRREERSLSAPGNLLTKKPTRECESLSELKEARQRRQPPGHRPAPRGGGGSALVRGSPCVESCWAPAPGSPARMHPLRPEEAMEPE", "assay": "SelectScreen kinase profiling, LanthaScreen binding"}, "[14]": {"target": "MATK (HYL) (Homo sapiens, UniProt P42679)", "sequence (P42679 whole entry)": "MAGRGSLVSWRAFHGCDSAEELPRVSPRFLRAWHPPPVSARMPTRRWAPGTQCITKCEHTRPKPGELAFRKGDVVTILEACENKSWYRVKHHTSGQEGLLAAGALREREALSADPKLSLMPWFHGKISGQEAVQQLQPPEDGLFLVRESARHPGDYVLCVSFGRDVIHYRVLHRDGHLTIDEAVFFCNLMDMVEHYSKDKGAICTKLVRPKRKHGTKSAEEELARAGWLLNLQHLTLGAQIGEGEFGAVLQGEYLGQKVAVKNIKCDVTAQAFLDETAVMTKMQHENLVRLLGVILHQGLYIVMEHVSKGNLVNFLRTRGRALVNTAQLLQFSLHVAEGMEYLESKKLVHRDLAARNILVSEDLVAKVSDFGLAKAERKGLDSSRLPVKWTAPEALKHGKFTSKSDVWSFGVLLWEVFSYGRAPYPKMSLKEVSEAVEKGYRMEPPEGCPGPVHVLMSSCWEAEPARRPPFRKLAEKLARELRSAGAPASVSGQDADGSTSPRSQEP", "assay": "SelectScreen kinase profiling, ZLYTE", "assay_type": "biochemical"}, "[15]": {"target": "HIPK3 (YAK1) (Homo sapiens, UniProt Q9H422)", "sequence (Q9H422 whole entry)": "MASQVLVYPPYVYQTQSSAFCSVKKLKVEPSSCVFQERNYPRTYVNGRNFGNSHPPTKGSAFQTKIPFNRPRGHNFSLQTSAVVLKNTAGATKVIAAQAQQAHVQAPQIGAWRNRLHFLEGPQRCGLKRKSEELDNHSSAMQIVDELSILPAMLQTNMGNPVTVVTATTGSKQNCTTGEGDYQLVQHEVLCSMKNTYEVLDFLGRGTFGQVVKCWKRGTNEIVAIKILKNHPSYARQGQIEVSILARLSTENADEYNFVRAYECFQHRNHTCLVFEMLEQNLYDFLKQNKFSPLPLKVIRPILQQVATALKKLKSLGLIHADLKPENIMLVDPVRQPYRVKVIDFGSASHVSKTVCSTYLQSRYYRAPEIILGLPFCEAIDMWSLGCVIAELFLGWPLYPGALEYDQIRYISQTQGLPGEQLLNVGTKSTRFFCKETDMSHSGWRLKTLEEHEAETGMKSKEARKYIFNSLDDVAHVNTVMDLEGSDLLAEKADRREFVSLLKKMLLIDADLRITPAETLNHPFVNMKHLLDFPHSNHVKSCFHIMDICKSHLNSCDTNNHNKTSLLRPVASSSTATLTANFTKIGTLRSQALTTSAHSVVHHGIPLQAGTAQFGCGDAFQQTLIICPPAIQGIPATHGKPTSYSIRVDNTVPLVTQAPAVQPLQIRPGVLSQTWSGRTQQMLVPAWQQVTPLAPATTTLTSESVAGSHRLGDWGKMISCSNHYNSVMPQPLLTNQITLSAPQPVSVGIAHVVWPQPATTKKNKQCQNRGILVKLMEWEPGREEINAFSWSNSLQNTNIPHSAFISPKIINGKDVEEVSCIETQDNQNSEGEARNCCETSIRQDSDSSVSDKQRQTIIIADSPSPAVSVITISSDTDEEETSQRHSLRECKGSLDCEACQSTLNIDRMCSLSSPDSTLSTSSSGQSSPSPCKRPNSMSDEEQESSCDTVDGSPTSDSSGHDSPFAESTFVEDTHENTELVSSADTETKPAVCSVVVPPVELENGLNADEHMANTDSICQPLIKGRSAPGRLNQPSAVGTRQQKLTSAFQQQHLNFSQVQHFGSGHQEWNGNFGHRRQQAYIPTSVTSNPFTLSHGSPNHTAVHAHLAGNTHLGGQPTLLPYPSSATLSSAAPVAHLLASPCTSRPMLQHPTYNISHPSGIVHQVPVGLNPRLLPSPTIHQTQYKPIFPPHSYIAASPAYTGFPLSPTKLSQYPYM", "assay": "SelectScreen kinase profiling, ZLYTE", "assay_type": "biochemical"}, "[16]": {"target": "GRK1 (Homo sapiens, UniProt Q15835)", "assay": "SelectScreen kinase profiling, LanthaScreen binding", "details": "GRK1, 10 µM"}, "[17]": {"target": "GAK (Homo sapiens, UniProt O14976)", "assay": "SelectScreen kinase profiling, LanthaScreen binding"}, "[18]": {"target": "IRAK3 (Homo sapiens, UniProt Q9Y616)", "assay": "SelectScreen kinase profiling, LanthaScreen binding", "details": "IRAK3, 10 µM"}, "[19]": {"target": "MAP3K2 (MEKK2) (Homo sapiens, UniProt Q9Y2U5)", "assay": "SelectScreen kinase profiling, LanthaScreen binding"}, "[20]": {"target": "STK38 (NDR) (Homo sapiens, UniProt Q15208)", "assay": "SelectScreen kinase profiling, LanthaScreen binding"}, "[21]": {"target": "FGFR4 (Homo sapiens, UniProt P22455)", "assay": "SelectScreen kinase profiling, ZLYTE", "assay_type": "biochemical", "details": "FGFR4, 10 µM"}, "[22]": {"target": "PIM1 (Homo sapiens, UniProt P11309)", "sequence (P11309 whole entry)": "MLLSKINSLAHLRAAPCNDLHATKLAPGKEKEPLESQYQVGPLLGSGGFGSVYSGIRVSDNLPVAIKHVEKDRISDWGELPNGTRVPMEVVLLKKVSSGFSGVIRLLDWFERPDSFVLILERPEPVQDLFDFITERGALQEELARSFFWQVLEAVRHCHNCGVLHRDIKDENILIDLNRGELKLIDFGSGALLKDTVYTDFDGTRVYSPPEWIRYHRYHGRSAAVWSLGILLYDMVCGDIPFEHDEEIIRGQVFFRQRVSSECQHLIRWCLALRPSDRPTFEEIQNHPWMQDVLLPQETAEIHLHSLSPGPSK", "assay": "SelectScreen kinase profiling, ZLYTE", "assay_type": "biochemical", "details": "PIM1, 10 µM"}, "[23]": {"target": "MYO3A (MYO3 alpha) (Homo sapiens, UniProt Q8NEV4)", "assay": "SelectScreen kinase profiling, LanthaScreen binding"}, "[24]": {"target": "ABL1 G250E (Homo sapiens, UniProt P00519, G250E)", "assay": "SelectScreen kinase profiling, ZLYTE", "assay_type": "biochemical"}, "[25]": {"target": "PIK3C2G (PI3K-C2 gamma) (Homo sapiens, UniProt O75747)", "assay": "SelectScreen kinase profiling, Adapta", "assay_type": "biochemical"}, "[26]": {"target": "CASK (Homo sapiens, UniProt O14936)", "assay": "SelectScreen kinase profiling, LanthaScreen binding"}, "[27]": {"target": "CDK6/cyclin D1 (Homo sapiens, UniProt Q00534)", "assay": "SelectScreen kinase profiling, Adapta", "assay_type": "biochemical", "details": "CDK6/cyclin D1, 10 µM"}, "[28]": {"target": "ACVR2B (Homo sapiens, UniProt Q13705)", "assay": "SelectScreen kinase profiling, LanthaScreen binding"}, "[29]": {"target": "ICK (Homo sapiens, UniProt Q9UPZ9)", "sequence (Q9UPZ9 whole entry)": "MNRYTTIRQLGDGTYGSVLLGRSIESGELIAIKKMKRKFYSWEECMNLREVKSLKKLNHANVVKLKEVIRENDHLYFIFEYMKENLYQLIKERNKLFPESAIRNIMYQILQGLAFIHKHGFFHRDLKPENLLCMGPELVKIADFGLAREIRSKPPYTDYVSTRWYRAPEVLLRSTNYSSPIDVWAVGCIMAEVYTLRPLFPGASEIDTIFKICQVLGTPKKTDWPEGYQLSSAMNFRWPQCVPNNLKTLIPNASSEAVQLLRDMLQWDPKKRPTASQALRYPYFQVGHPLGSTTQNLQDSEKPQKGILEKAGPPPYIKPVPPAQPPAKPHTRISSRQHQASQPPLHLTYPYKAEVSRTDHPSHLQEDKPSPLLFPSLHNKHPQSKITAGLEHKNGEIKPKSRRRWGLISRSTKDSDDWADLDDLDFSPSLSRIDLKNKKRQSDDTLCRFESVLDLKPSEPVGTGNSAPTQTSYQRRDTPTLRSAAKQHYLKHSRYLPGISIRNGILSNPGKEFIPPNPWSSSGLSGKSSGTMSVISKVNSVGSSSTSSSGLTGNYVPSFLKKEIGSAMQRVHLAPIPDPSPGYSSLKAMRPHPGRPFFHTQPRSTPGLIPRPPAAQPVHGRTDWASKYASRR", "assay": "SelectScreen kinase profiling, LanthaScreen binding"}, "[30]": {"target": "CDKL5 (Homo sapiens, UniProt O76039)", "assay": "SelectScreen kinase profiling, ZLYTE", "assay_type": "biochemical", "details": "CDKL5, 10 µM"}, "[31]": {"target": "PKMYT1 (Homo sapiens, UniProt Q99640)", "assay": "SelectScreen kinase profiling, LanthaScreen binding", "details": "PKMYT1, 10 µM"}, "[32]": {"target": "MYLK (MLCK) (Homo sapiens, UniProt Q15746)", "assay": "SelectScreen kinase profiling, LanthaScreen binding"}, "[33]": {"target": "ACVR1B (ALK4) (Homo sapiens, UniProt P36896)", "assay": "SelectScreen kinase profiling, ZLYTE", "assay_type": "biochemical"}, "[34]": {"target": "ABL1 T315I (Homo sapiens, UniProt P00519, T315I)", "assay": "SelectScreen kinase profiling, ZLYTE", "assay_type": "biochemical"}, "[35]": {"target": "MELK (Homo sapiens, UniProt Q14680)", "sequence (Q14680 whole entry)": "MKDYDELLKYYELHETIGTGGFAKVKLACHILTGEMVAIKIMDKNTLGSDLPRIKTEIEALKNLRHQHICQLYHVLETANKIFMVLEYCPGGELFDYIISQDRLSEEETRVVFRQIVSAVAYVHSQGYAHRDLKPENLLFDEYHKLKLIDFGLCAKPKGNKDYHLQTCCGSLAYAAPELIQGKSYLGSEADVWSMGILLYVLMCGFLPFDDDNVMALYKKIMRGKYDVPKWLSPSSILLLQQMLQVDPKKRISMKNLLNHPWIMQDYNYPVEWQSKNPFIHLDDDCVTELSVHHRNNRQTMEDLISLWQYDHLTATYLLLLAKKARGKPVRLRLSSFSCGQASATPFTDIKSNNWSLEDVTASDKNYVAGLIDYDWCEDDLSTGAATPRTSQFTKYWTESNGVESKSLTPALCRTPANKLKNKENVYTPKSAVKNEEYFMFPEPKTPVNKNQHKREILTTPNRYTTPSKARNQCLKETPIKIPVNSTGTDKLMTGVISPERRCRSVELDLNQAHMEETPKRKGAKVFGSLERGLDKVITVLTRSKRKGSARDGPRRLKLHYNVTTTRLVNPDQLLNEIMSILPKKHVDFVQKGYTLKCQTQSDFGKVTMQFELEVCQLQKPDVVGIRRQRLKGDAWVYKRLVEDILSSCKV", "assay": "SelectScreen kinase profiling, ZLYTE", "assay_type": "biochemical"}, "[36]": {"target": "PRKCQ (PKC theta) (Homo sapiens, UniProt Q04759)", "assay": "SelectScreen kinase profiling, ZLYTE", "assay_type": "biochemical"}, "[37]": {"target": "LTK (TYK1) (Homo sapiens, UniProt P29376)", "assay": "SelectScreen kinase profiling, ZLYTE", "assay_type": "biochemical"}, "[38]": {"target": "P450 1A2 (Homo sapiens, UniProt P05177)", "sequence (P05177 whole entry)": "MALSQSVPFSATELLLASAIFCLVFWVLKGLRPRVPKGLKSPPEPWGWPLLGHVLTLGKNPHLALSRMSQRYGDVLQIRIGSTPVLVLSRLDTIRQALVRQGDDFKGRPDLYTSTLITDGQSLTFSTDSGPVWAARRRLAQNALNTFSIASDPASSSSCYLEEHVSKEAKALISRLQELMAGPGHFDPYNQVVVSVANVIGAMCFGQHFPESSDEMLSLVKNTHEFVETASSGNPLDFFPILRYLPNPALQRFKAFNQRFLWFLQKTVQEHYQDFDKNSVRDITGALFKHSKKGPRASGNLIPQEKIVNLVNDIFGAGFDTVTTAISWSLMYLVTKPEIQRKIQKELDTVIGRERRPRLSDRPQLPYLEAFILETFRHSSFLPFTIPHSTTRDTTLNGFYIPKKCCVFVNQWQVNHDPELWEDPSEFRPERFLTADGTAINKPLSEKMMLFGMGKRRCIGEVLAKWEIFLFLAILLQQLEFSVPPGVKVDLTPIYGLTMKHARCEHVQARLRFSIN", "assay": "SelectScreen P450 Vivid biochemical assay", "details": "10000nM; substrate EOMCC"}, "[39]": {"target": "MAP3K10 (MLK2) (Homo sapiens, UniProt Q02779)", "assay": "SelectScreen kinase profiling, LanthaScreen binding"}, "[40]": {"target": "MYLK4 (Homo sapiens, UniProt Q86YV6)", "assay": "SelectScreen kinase profiling, LanthaScreen binding", "details": "MYLK4, 10 µM"}},
  "data": [
    {"smiles": "O=C(c1ccc(/C=C/c2n[nH]c3ccccc23)cc1)N1CCNCC1", "note": "[KW-2449]", "values": [
      {"measurement": "inhibition at 10 µM", "setting": "[1]", "value": 101, "unit": "%"},
      {"measurement": "inhibition at 10 µM", "setting": "[2]", "value": 97, "unit": "%"},
      {"measurement": "inhibition at 10 µM", "setting": "[3]", "value": 73, "unit": "%"},
      {"measurement": "inhibition at 10 µM", "setting": "[4]", "value": 24, "unit": "%"},
      {"measurement": "inhibition at 10 µM", "setting": "[5]", "value": 53, "unit": "%"},
      {"measurement": "inhibition at 10 µM", "setting": "[6]", "value": 62, "unit": "%"},
      {"measurement": "inhibition at 10 µM", "setting": "[7]", "value": 9, "unit": "%"},
      {"measurement": "inhibition at 10 µM", "setting": "[8]", "value": 98, "unit": "%"},
      {"measurement": "% Inhibition 2C9 BOMF", "setting": "[9]", "value": -2, "unit": "%"},
      {"measurement": "IC50", "setting": "[10]", "value": 2450, "unit": "nM"},
      {"measurement": "inhibition at 10 µM", "setting": "[11]", "value": 59, "unit": "%"},
      {"measurement": "inhibition at 10 µM", "setting": "[12]", "value": 100, "unit": "%"},
      {"measurement": "inhibition at 10 µM", "setting": "[13]", "value": 86, "unit": "%"},
      {"measurement": "inhibition at 10 µM", "setting": "[14]", "value": 37, "unit": "%"},
      {"measurement": "inhibition at 10 µM", "setting": "[15]", "value": 53, "unit": "%"},
      {"measurement": "inhibition at 10 µM", "setting": "[16]", "value": 25, "unit": "%"},
      {"measurement": "inhibition at 10 µM", "setting": "[17]", "value": 67, "unit": "%"},
      {"measurement": "inhibition at 10 µM", "setting": "[18]", "value": 31, "unit": "%"},
      {"measurement": "inhibition at 10 µM", "setting": "[19]", "value": 86, "unit": "%"},
      {"measurement": "inhibition at 10 µM", "setting": "[20]", "value": 85, "unit": "%"},
      {"measurement": "inhibition at 10 µM", "setting": "[21]", "value": 70, "unit": "%"},
      {"measurement": "inhibition at 10 µM", "setting": "[22]", "value": 42, "unit": "%"},
      {"measurement": "inhibition at 10 µM", "setting": "[23]", "value": 59, "unit": "%"},
      {"measurement": "inhibition at 10 µM", "setting": "[24]", "value": 100, "unit": "%"},
      {"measurement": "inhibition at 10 µM", "setting": "[25]", "value": 2, "unit": "%"},
      {"measurement": "inhibition at 10 µM", "setting": "[26]", "value": -63, "unit": "%"},
      {"measurement": "inhibition at 10 µM", "setting": "[27]", "value": 82, "unit": "%"},
      {"measurement": "inhibition at 10 µM", "setting": "[28]", "value": 94, "unit": "%"},
      {"measurement": "inhibition at 10 µM", "setting": "[29]", "value": 74, "unit": "%"},
      {"measurement": "inhibition at 10 µM", "setting": "[30]", "value": 56, "unit": "%"},
      {"measurement": "inhibition at 10 µM", "setting": "[31]", "value": -61, "unit": "%"},
      {"measurement": "inhibition at 10 µM", "setting": "[32]", "value": 80, "unit": "%"},
      {"measurement": "inhibition at 10 µM", "setting": "[33]", "value": 39, "unit": "%"},
      {"measurement": "inhibition at 10 µM", "setting": "[34]", "value": 101, "unit": "%"},
      {"measurement": "inhibition at 10 µM", "setting": "[35]", "value": 101, "unit": "%"},
      {"measurement": "inhibition at 10 µM", "setting": "[36]", "value": 32, "unit": "%"},
      {"measurement": "inhibition at 10 µM", "setting": "[37]", "value": 90, "unit": "%"},
      {"measurement": "% Inhibition 1A2 EOMCC", "setting": "[38]", "value": -3, "unit": "%"},
      {"measurement": "inhibition at 10 µM", "setting": "[39]", "value": 87, "unit": "%"},
      {"measurement": "inhibition at 10 µM", "setting": "[40]", "value": 71, "unit": "%"}
    ]}
  ]
}
